Results on 20 molecules are retold here after patent US8134015B2, “Compound inhibiting in vivo phosphorous transport and medicine containing the same” (Kyowa Hakko Kirin Co., Ltd., priority 2003, dated 2012).

One assay has as its target T1, rat NaPi-2b (Rattus norvegicus, UniProt Q9JJ09).
T1 construct: expressed in transfected cells; host or cells: Xenopus oocytes injected with cRNA
T1 sequence (Q9JJ09 1-695): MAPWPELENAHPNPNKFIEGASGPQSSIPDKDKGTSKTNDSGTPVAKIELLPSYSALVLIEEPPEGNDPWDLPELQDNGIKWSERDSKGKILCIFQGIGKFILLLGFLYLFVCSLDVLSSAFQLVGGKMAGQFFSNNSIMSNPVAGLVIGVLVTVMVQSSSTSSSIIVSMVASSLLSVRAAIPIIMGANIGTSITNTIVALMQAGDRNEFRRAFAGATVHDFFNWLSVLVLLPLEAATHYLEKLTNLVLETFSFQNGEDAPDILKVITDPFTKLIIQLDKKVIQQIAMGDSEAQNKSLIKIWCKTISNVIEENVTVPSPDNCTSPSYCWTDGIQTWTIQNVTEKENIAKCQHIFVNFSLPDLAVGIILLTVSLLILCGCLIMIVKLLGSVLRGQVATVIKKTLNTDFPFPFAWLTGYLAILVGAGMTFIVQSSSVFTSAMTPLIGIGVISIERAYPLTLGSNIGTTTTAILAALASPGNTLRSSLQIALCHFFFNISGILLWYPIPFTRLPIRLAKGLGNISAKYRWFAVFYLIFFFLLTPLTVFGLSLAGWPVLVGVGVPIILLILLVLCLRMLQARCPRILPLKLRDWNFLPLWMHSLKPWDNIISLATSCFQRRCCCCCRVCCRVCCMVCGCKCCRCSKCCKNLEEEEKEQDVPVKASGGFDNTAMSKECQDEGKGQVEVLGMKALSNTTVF
The assay is described as follows: Sodium-dependent phosphate uptake of Xenopus oocytes which expressed NaPi-2b (32P). In kind it is cell-based. The conditions noted are these: for IC50: Xenopus oocytes expressing rat NaPi-2b, 32P radioactive phosphorus, read-out: IC50 (phosphate uptake inhibitory activity). The procedure, abridged:
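Inhibition at 300 μM and 100 μM was read off one inhibition curve of 32P phosphate uptake. Uptake was measured in Xenopus oocytes cultured 2 days after injection of cRNA for cloned rat NaPi-2b.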

Another assay concerns the target T2, human NaPi-2a (Homo sapiens, UniProt Q06495).
T2 construct: expressed in transfected cells
T2 sequence (Q06495 1-639): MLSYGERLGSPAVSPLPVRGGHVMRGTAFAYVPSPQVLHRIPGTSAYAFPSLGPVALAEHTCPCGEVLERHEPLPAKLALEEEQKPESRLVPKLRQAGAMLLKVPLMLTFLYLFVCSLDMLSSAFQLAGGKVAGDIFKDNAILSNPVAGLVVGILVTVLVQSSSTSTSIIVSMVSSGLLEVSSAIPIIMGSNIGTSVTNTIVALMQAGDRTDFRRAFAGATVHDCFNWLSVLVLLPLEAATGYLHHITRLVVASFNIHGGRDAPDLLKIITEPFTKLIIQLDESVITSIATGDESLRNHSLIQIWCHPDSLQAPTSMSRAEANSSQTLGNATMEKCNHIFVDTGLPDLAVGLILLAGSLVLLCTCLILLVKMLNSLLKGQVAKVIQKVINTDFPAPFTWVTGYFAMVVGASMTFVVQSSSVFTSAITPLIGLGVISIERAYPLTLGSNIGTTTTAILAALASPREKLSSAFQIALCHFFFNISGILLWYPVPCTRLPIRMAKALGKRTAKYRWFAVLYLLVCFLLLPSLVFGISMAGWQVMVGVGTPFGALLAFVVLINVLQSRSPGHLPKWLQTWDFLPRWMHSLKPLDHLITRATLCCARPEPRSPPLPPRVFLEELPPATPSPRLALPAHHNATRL
The assay is described as follows: Sodium-dependent phosphate uptake of Xenopus oocytes which expressed NaPi-2a (32P). In kind it is cell-based. Particulars: phosphate uptake, Xenopus oocytes expressing human NaPi-2a; five concentration levels. The source says: Experiment of Sodium-Dependent Phosphate Uptake of Xenopus oocytes which Expressed NaPi-2a
In the test, a group with the addition of choline chloride (Choline Cl) was used as a negative control for nonspecific uptake, and PFA (phosphonoformic acid) was used as a positive control for phosphate transport inhibition.

In general, IC50 refers to the midpoint of a concentration-inhibition curve. Turning to `O=C(Nc1ccc(N2CCCCC2)cc1C(=O)N/N=C/c1cccc(F)c1)c1cccc(CSCCO)c1` [Compound 883, N-[2-(3-Fluoro-benzylidene-hydrazinocarbonyl)-4-piperidin-1-yl-phenyl]-3-(2-hydroxy-ethylsulfanylmethyl)-benzamide], the IC50 on rat NaPi-2b was determined as 0.04 µM; on human NaPi-2a, 1.98 µM.

With `O=C(Nc1ccc(N2CCCCC2)cc1C(=O)N/N=C/c1ccc(F)cc1)c1cccc(CSCCO)c1` [Compound 882, N-[2-(4-Fluoro-benzylidene-hydrazinocarbonyl)-4-piperidin-1-yl-phenyl]-3-(2-hydroxy-ethylsulfanylmethyl)-benzamide], the IC50 was 0.33 µM at rat NaPi-2b and 4.45 µM on human NaPi-2a.

Regarding `Cc1sc(NC(=O)c2cccc(CN(CC(C)O)CC(C)O)c2)c(C(=O)N/N=C/c2ccc(F)cc2)c1C` (centres unmarked) [Compound 846, 3-{[Bis-(2-hydroxy-propyl)-amino]-methyl}-N-[3-(4-fluoro-benzylidene-hydrazinocarbonyl)-4,5-dimethyl-thiophen-2-yl]-benzamide], the IC50 at rat NaPi-2b and against human NaPi-2a was less than 3 µM in each case.

Consider `CCN(CC)CCNCc1cccc(C(=O)Nc2sc3c(c2C(=O)N/N=C/c2ccc(Cl)c(C(F)(F)F)c2)CCC3)c1` [Compound 814, N-[3-(4-Chloro-3-trifluoromethyl-benzylidene-hydrazinocarbonyl)-5,6-dihydro-4H-cyclopenta[b]thiophen-2-yl]-3-[(2-diethylamino-ethylamino)-methyl]-benzamide], for which the IC50 was less than 3 µM at rat NaPi-2b and 18.3 µM at human NaPi-2a.

In the case of `Cc1ccc(/C=N/NC(=O)c2cc(N3CCCCC3)ccc2NC(=O)c2cccc(CSCCO)c2)cc1C` [Compound 880, N-[2-(3,4-Dimethyl-benzylidene-hydrazinocarbonyl)-4-piperidin-1-yl-phenyl]-3-(2-hydroxy-ethylsulfanylmethyl)-benzamide], the values for the IC50 at rat NaPi-2b and against human NaPi-2a were 0.08 µM and 1.3 µM, respectively.

As to `COc1ccc(/C=N/NC(=O)c2cc(F)ccc2NC(=O)c2cccc(CN(CC(C)O)CC(C)O)c2)cc1` (centres unmarked) [Compound 990, 3-{[Bis-(2-hydroxy-propyl)-amino]-methyl}-N-[4-fluoro-2-(4-methoxy-benzylidene-hydrazinocarbonyl)-phenyl]-benzamide], the results for the IC50 on rat NaPi-2b and against human NaPi-2a were less than 3 µM and 7.14 µM, respectively.

Regarding `Cc1csc(NC(=O)c2cccc(CN3CCN(c4ncccn4)CC3)c2)c1C(=O)N/N=C/c1cccc(F)c1` [Compound 829, N-[3-(3-Fluoro-benzylidene-hydrazinocarbonyl)-4-methyl-thiophen-2-yl]-3-(4-pyrimidin-2-yl-piperazin-1-ylmethyl)-benzamide], the IC50 was 3.91 µM on rat NaPi-2b and less than 3 µM against human NaPi-2a.

As for `Cc1ccc(/C=N/NC(=O)c2c(C)csc2NC(=O)c2cccc(CN(C)C)c2)cc1C` [Compound 822, 3-Dimethylaminomethyl-N-[3-(3,4-dimethyl-benzylidene-hydrazinocarbonyl)-4-methyl-thiophen-2-yl]-benzamide], the results for the IC50 on rat NaPi-2b and against human NaPi-2a were 5.9 µM and 18 µM, respectively.

`Cc1ccc(/C=N/NC(=O)c2c(NC(=O)c3cccc(CN(CC(C)O)CC(C)O)c3)sc3c2CCCC3)cc1C` (centres unmarked) [Compound 627, 3-{[Bis-(2-hydroxy-propyl)-amino]-methyl}-N-[3-(3,4-dimethyl-benzylidene-hydrazinocarbonyl)-4,5,6,7-tetrahydro-benzo-[b]thiophen-2-yl]-benzamide]: the figures for the IC50 on rat NaPi-2b and against human NaPi-2a were less than 1 µM and 3.53 µM, respectively.

With `Cc1ccc(/C=N/NC(=O)c2c(NC(=O)c3cccc(CN4CCC(O)CC4)c3)sc3c2CCCC3)cc1C` [Compound 633, N-[3-(3,4-Dimethyl-benzylidene-hydrazinocarbonyl)-4,5,6,7-tetrahydro-benzo[b]thiophen-2-yl]-3-(4-hydroxy-piperidin-1-ylmethyl)-benzamide], the IC50 at rat NaPi-2b is 1.19 µM; on human NaPi-2a, 13.5 µM.

Take `CCN(CC)CCN(C)Cc1cccc(C(=O)Nc2ccc(N3CCCCC3)cc2C(=O)N/N=C/c2cccc(F)c2)c1` [Compound 861, 3-{[(2-Diethylamino-ethyl)-methyl-amino]-methyl}-N-[2-(3-fluoro-benzylidene-hydrazinocarbonyl)-4-piperidin-1-yl-phenyl]-benzamide]: the IC50 at rat NaPi-2b was 0.52 µM; against human NaPi-2a, less than 1 µM.

For the molecule `CCN(CC)CCN(C)Cc1cccc(C(=O)Nc2ccc(N3CCCCC3)cc2C(=O)N/N=C/c2ccc(OC)cc2)c1` [Compound 863, 3-{[(2-Diethylamino-ethyl)-methyl-amino]-methyl}-N-[2-(4-methoxy-benzylidene-hydrazinocarbonyl)-4-piperidin-1-yl-phenyl]-benzamide], the IC50 at rat NaPi-2b worked out at 1.22 µM; against human NaPi-2a it was 6.9 µM.

In the case of `CCN(CC)CCN(C)Cc1cccc(C(=O)Nc2ccc(N3CCOCC3)cc2C(=O)N/N=C/c2ccc(C)c(C)c2)c1` [Compound 1074, 3-{[(2-Diethylamino-ethyl)-methyl-amino]-methyl}-N-[2-(3,4-dimethyl-benzylidene-hydrazinocarbonyl)-4-morpholin-4-yl-phenyl]-benzamide], the IC50 on rat NaPi-2b was determined as 1.54 µM.

`O=C(Nc1ccc(Cl)cc1C(=O)N/N=C/c1ccc(O)cc1)c1cccc(CN(CCO)CCO)c1` [Compound 411, 3-{[Bis-(2-hydroxy-ethyl)-amino]-methyl}-N-[4-chloro-2-(4-hydroxy-benzylidene-hydrazinocarbonyl)-phenyl]-benzamide]: the IC50 at rat NaPi-2b amounted to 10.1 µM.

For the molecule `CCN(CC)CCN(C)Cc1cccc(C(=O)Nc2ccc(I)cc2C(=O)N/N=C/c2cccc(F)c2)c1` [Compound 472, 3-{[(2-Diethylamino-ethyl)-methyl-amino]-methyl}-N-[2-(3-fluoro-benzylidene-hydrazinocarbonyl)-4-iodo-phenyl]-benzamide], the IC50 at rat NaPi-2b is less than 3 µM.

As for `O=C(Nc1ccc(Br)cc1C(=O)N/N=C/c1ccc(Cl)c(C(F)(F)F)c1)c1ccc(CN2CCC(O)CC2)cc1` [Compound 329, N-[4-Bromo-2-(4-chloro-3-trifluoromethyl-benzylidene-hydrazinocarbonyl)-phenyl]-4-(4-hydroxy-piperidin-1-ylmethyl)-benzamide], the IC50 at rat NaPi-2b stood at 5.63 µM.

Take `O=C(Nc1ccc(Br)cc1C(=O)N/N=C/c1cccc(F)c1)c1cccnc1` [Compound 172, N-[4-Bromo-2-(3-fluoro-benzylidene-hydrazinocarbonyl)-phenyl]-nicotinamide]: the IC50 at rat NaPi-2b turned out to be 2.74 µM.

As usually defined, the inhibition is the drop in the measured response relative to a control, in per cent. Read a high inhibition as strong suppression. At rat NaPi-2b (phosphate uptake, oocytes expressing rat NaPi-2b, 300 μM, determined from inhibition curve), `CCN(CC)CCN(C)Cc1cccc(C(=O)Nc2cc(OCCOC)c(OCCOC)cc2C(=O)N/N=C/c2ccc(OC)cc2)c1` [Compound 1032, 3-{[(2-Diethylamino-ethyl)-methyl-amino]-methyl}-N-[2-(4-methoxy-benzylidene-hydrazinocarbonyl)-4,5-bis-(2-methoxy-ethoxy)-phenyl]-benzamide] showed an inhibition at 300 µM of 40%.

As for `Cc1ccc(/C=N/NC(=O)c2c(NC(=O)c3cccc(CN4CCC(CO)CC4)c3)sc3c2CCC3)cc1` [Compound 817, 3-(4-Hydroxymethyl-piperidin-1-ylmethyl)-N-[3-(4-methyl-benzylidene-hydrazinocarbonyl)-5,6-dihydro-4H-cyclopenta[b]thiophen-2-yl]-benzamide], at rat NaPi-2b, the IC50 is 36.1 µM.

Consider `Cc1ccc(/C=N/NC(=O)c2cc(Br)ccc2NC(=O)c2ccno2)cc1C` [Compound 512, Isoxazole-5-carboxylic acid [4-bromo-2-(3,4-dimethyl-benzylidene-hydrazinocarbonyl)-phenyl]-amide], for which the IC50 on rat NaPi-2b stood at 28.3 µM.
